These results are taken from publication PMC9658513, “Discovery of Compounds That Selectively Repress the Amyloidogenic Processing of the Amyloid Precursor Protein: Design, Synthesis and Pharmacological Evaluation of Diphenylpyrazoles” (International Journal of Molecular Sciences, 2022).

Like-named read-outs stand apart in the source and are kept apart here. A value given as a limit tells only on which side of the number the result lay.

One series deals with LC3. Put plainly: Autophagic flux: LC3-I lipidation into LC3-II by Western blot. The conditions noted are these: Homo sapiens, 24 h, 0.1 µM (100 nM), SY5Y-APP^wt cells, vs control. The series is classed as cell-based. An excerpt:
(§1) Previous work dedicated to compounds of family C [22] has underlined the effect of our compounds on autophagic flux and the lysosomal degradation pathways. More precisely, the role of the amino side chains and their number was highlighted. Therefore, we assessed whether the activity of compounds involved the modulation of lysosomal activities toward the accumulation of APP-CTFs and AICD. Thus, we studied the effect of a selection of compounds on the autophagic flux, more particularly, we evaluated the effect of compounds 24, 33, 34, 57, 65, 67, 70, and 71 on two markers associated with autophagy: p62 and LC3-I lipidation into LC3-II. To the previous selection of efficient compounds decreasing Aβ1–x production and increasing CTFα and AICD, we added compound 65 with no cytotoxicity at 100 µM. As a comparison, we also selected compound 57 with a hydroxymethyl substituent as a control. In addition to CQ, bafilomycin A, a well-known inhibitor of autophagic flux, was used as a control. Treatment with compounds 67 and 71 induced an increase in p62 expression by 2.5 and 4-fold, respectively, compared to the control condition (Figure 3). […] An increase in the two markers was also observed with compound 57, but to a smaller extent (1.7-fold for p62 and 2-fold for LC3-I/LC3-II).
(§2) The human neuroblastoma cell line SY5Y-APP^695WT was maintained in Dulbecco’s modified Eagle medium (DMEM, high glucose, pyruvate—GIBCO, Life Technologies, Carlsbad, CA, USA) supplemented with 10% fetal bovine serum, 2 mM L-glutamine, 1 mM non-essential amino acids and penicillin/streptomycin (GIBCO, Life Technologies, Carlsbad, CA, USA) at 37 °C in a 5% CO2 humidified incubator [36]. For compound treatment, a 10 mM stock solution was diluted in freshly supplemented DMEM medium to obtain the precise final concentration of the drug. Cells were plated at a density of 5 × 10^5 cells per well into 12-well plates and cultured with 1 mL supplemented DMEM cell medium for 24 h before compound exposure. The following day, the cell medium was replaced with fresh medium containing the compounds diluted at the indicated concentrations. Cells were treated for 24 h. At the end of the treatments, the cell medium was collected and kept at −80 °C until use, cells were rinsed once with PBS and extracted in 100 µL of Laemmli buffer (10 mM Tris, 20% glycerol, and 2% sodium dodecyl sulfate) using a cell-scraper. The cell lysate was further sonicated (30 pulses of 0.5 s, 60 Hz) for 5 min. Total protein concentration was determined using the Pierce BCA Protein Assay Kit (Thermo Scientific, Waltham, MA, USA) according to the manufacturer’s instructions. Samples were stored at −80 °C until analysis.
(§3) Cell protein lysates were prepared for Western blot analysis by diluting the sample with 1 volume of NuPAGE® lithium dodecyl sulfate (LDS) 2X sample buffer supplemented with 20% NuPAGE® sample reducing agents (Invitrogen). Samples were heated for 10 min at 100 °C. Ten µg of total proteins per well were loaded onto precast 4–12% Criterion XT Bis-Tris polyacrylamide gels (Bio-Rad) and electrophoresis was achieved after applying a tension of 150 V for 90 min using a Criterion electrophoresis cell with the NuPAGE® MOPS SDS running buffer (1X). Proteins were transferred to a nitrocellulose membrane of […] pore size (G&E Healthcare, Madison, WI, USA) using the Criterion blotting system and applying a tension of 100 V for 45 min. To resolve proteins of low molecular weights such as carboxy-terminal fragments of APP, 12% Criterion XT Bis-Tris polyacrylamide gels (Bio-Rad, Hercules, CA, USA) were used, and electrophoresis was performed for 70 min at 150 V in a NuPAGE® MES SDS running buffer (1X). Proteins were transferred to a nitrocellulose membrane of 0.2 µm pore size (G&E Healthcare, Madison, WI, USA) at 100 V for 40 min. Molecular weight calibration was achieved using molecular weight markers (Novex and Magic Marks, Life Technologies, Carlsbad, CA, USA). […]
For orientation: In western blotting, separated proteins are transferred to a membrane and probed.

For the next series, the system named is p62/LC3. Put plainly: Ratio between p62 and LC3 expression levels. The series is classed as cell-based, human. The conditions noted are these: 0.1 µM (100 nM), 24 h, SY5Y-APP^wt cells. The source says: Compounds from both series were selected to first determine the potential relationship between the repression of Aβ1–x production and the increased expression of LC3 and p62. […] We then also considered the ratio between the p62 and LC3 expression levels.
Figure 3 Effect of compounds 24, 33, 34, 57, 65, 67, 70, and 71 on the autophagic flux in SY5Y-APP^wt cells. […] Cell lysates were immunolabeled with the following antibodies: p62 (a), LC3 (b), and β-actin. Statistical significance was set at * p < 0.05, ** p < […], *[…], **** p < 0.0001, and ns as not significant.

In another series the test system is p62. Put plainly: Autophagic flux: p62 expression by Western blot. The series is classed as cell-based, human. As to conditions: Homo sapiens, 24 h, 0.1 µM (100 nM), SY5Y-APP^wt cells, vs control.
Text: as §1, §2, §3

Series [1] deals with AICD (APP intracellular domain). The experiment in a line: AICD level by Western blotting in SY5Y-APP^WT cells. The class given is cell-based, human. The conditions noted are these: concentration increasing AICD 20-fold vs untreated control, read-out: AICD (C20). The procedure: (§4) The final and selected intermediate compounds were evaluated for their ability to modulate APP processing in the SH-SY5Y human neuroblastoma cell line stably expressing the neuronal isoform of human wild-type APP^695 (SY5Y-APP^WT), a well-established model for the study of APP metabolism. APP carboxy-terminal fragments (αCTFs and AICD) levels were assessed by Western blotting (WB). The effect of the reference and test compounds on αCTFs and AICD is expressed as the intensity of corresponding WB bands. The concentration of compounds able to increase 20-times αCTFs and AICD (C20) when compared to the control condition was calculated. Selected compounds were also evaluated for their ability to modulate the secretion of soluble APP fragments (sAPPα and sAPPβ). Aβ1–x levels (Aβ1–40 and Aβ1–42) after treatment with the reference and tested compounds were measured in the cell media by ELISA (Table 1). […] Selected hit compounds were then further evaluated for their ability to decrease the level of N-truncated Aβ peptides (Aβx–38, Aβx–40, and Aβx–42).
as §2
as §3, with “USA). Protein transfer and quality were determined by a reversible Ponceau Red coloration (0.2% xylidine Ponceau Red and 3% trichloroacetic acid).” for “USA).”

The nature of a further series: in vitro. The series is classed as cell-based, human. The conditions noted are these: human. The procedure: (§5) Cytotoxicity was measured using 3-(4,5-dimethylthiazol-2-yl)-5-(3-carboxymethoxyphenyl)-2-(4-sulfophenyl)-2H-tetrazolium (MTS) tests. SY5Y-APP^695WT cells were plated in a 96-well plate at 3 × 10^4 cells per well and allowed to attach for 24 h. Cells were then incubated for 72 h with 100 µL of DMEM with 10% SVF containing (or not) the defined concentration of drugs. Cytotoxicity was determined by using the colorimetric MTS assay (Cell Titer 96® Aqueous One Solution Cell Proliferation Assay-MTS Promega, Madison, WI, USA) according to the manufacturer’s instructions. Absorbance was read at 490 nm.

Another series relates to Aβ1–42 peptide secretion. Put plainly: Aβ1–42 secretion in cell medium by ELISA. The series is classed as cell-based, human. The conditions noted are these: SY5Y-APP^WT cells, 24 h treatment, mean ± SD of at least three experiments in triplicate. The procedure: as §4, §2
(§6) Conditioned media of SY5Y-APP^695WT collected at the end of treatments were centrifuged at 1000× g for 5 min to eliminate cell debris.
(§7) Aβ1–40/Aβ1–42 peptides, Aβx–38/Aβx–40/Aβx–42, and sAPPα/sAPPβ concentrations in pg/mL were determined, respectively, using amyloid-beta 40 and 42 Human ELISA Kits (Invitrogen), the V-PLEX Plus Aβ Peptide Panel 1 (4G8) Kit (Meso Scale Diagnostics, MSD R©, Rockville, MD, USA), and the sAPPα/sAPPβ Multiplex Kit (Meso Scale Diagnostics, MSD R©, Rockville, MD, USA) according to the manufacturer’s instructions.

The next series has as its system Aβ1–40 peptide secretion. The experiment in a line: Aβ1–40 secretion in cell medium by ELISA. The series is classed as cell-based, human. As to conditions: SY5Y-APP^WT cells, 24 h treatment, mean ± SD of at least three experiments in triplicate, read-out: Aβ1–40 IC50. As to the method: as §4, §2, §6, §7
(An ELISA detects its analyte on a solid surface through an enzyme-linked reagent.)

The test system of series [2] is αCTF (APP carboxy-terminal fragment). The experiment in a line: αCTF level by Western blotting in SY5Y-APP^WT cells. The class given is cell-based, human. As to conditions: concentration increasing αCTF 20-fold vs untreated control, SY5Y-APP^WT cells, read-out: αCTF (C20). The procedure: as §4, §2
as §3, with “USA). Protein transfer and quality were determined by a reversible Ponceau Red coloration (0.2% xylidine Ponceau Red and 3% trichloroacetic acid).” for “USA).”

The test system of a further series is SY5Y-APP^695WT cells. Put plainly: in vitro. The series is classed as cell-based, human. The procedure: as §5

`CO/C1=C\C(C)=C\[C@@H](C)[C@@H](O)[C@@H](C)C/C(C)=C/C=C/[C@H](OC)[C@@H]([C@@H](C)[C@@H](O)[C@H](C)[C@@]2(O)C[C@@H](O)[C@H](C)[C@@H](C(C)C)O2)OC1=O` [Baf A1, bafilomycin A1, reference compound]: the fold induction (usually the ratio of treated to control signal) at 0.1 µM in the series on LC3 came out at 4.68; with p62, 1.48. Further, the p62/LC3 in the series on p62/LC3 stood at 0.31.
As for `CN(C)CCCc1ccc(-c2nn(-c3cccc(CN4CCN(C)CC4)c3)cc2CCCN(C)C)cc1` [Compound 31, 3-[4-[4-[3-(Dimethylamino)propyl]-1-[3-[(4-methylpiperazin-1-yl)methyl] Phenyl]pyrazol-3-yl]phenyl]-N,N-dimethyl-propan-1-amine], the EC (20-fold increase) was 1.5 µM in [1] (Homo sapiens) and 1 µM in series [2] (Homo sapiens). Moreover, the half-maximal cytotoxic concentration (CC50) – broadly, the concentration at which the toxic effect on the cells reaches its halfway point – at 72 h in the series “in vitro” was > 100 µM. Moreover, the IC50 (usually the midpoint of a concentration-inhibition curve) with Aβ1–42 peptide secretion (Homo sapiens) amounted to 5.8 ± 0.6 µM; in the series with Aβ1–40 peptide secretion (Homo sapiens) it was 4 ± 0.6 µM.
The matching figures for `CN(C)CCCc1ccc(-c2nn(-c3ccc(CO)cc3)cc2CN(C)C)cc1` [Compound 16, [4-[4-(Dimethylaminomethyl)-3-[4-[3-(dimethylamino)propyl]phenyl] Pyrazol-1-yl]phenyl]methanol]: 4.6 µM, 3.6 µM, 23 µM, 6.5 ± 1.1 µM and 6.2 ± 0.6 µM.
The corresponding values for `CN(C)CCCc1ccc(-c2nn(-c3ccc(CN(C)C)cc3)cc2CCCN(C)C)cc1` [Compound 25, 3-[4-[1-[4-(Dimethylaminomethyl)phenyl]-4-[3-(dimethylamino)propyl] Pyrazol-3-yl]phenyl]-N,N-dimethyl-propan-1-amine] are 1.2 µM, 1 µM, > 100 µM, 3.2 ± 1 µM and 2.9 ± 0.1 µM.
The corresponding values for `CN(C)CCCc1ccc(-c2nn(-c3ccc(CN4CCN(C)CC4)cc3)cc2CN(C)C)cc1` [Compound 28, 3-[4-[4-(Dimethylaminomethyl)-1-[4-[(4-methylpiperazin-1-yl)methyl] Phenyl]pyrazol-3-yl]phenyl]-N,N-dimethyl-propan-1-amine] are 1.7 µM, 1.2 µM, > 100 µM, 2.4 ± 0.7 µM and 1.9 ± 0.1 µM.
Take `Cc1cn(-c2cccc(CN(C)C)c2)nc1-c1cccc(CN(C)C)c1` [Compound 64, 1-[3-[1-[3-(Dimethylaminomethyl)phenyl]-4-methyl-pyrazol-3-yl]phenyl]-N,N-dimethylmethanamine]: the results for the EC (20-fold increase) in series [1] (Homo sapiens) and in [2] (Homo sapiens) were 4.9 µM and 3.8 µM, respectively. Further, in “in vitro”, the CC50 at 72 h is > 100 µM. Also, the concentration for half-maximal inhibition (IC50) in the series on Aβ1–42 peptide secretion (Homo sapiens) amounted to 4.1 ± 1.6 µM; with Aβ1–40 peptide secretion (Homo sapiens) it was 3.8 ± 0.2 µM.
Regarding “N′-[[4-[4-(Dimethylaminomethyl)-3-[4-[3-(dimethylamino)propyl]phenyl] Pyrazol-1-yl]phenyl]methyl]-N,N,N′-trimethyl-propane-1,3-diamine [Compound 32]”, the EC (20-fold increase) in series [1] turned out to be 1.8 µM; in series [2] it was 1.1 µM. Besides, the CC50 in the series on SY5Y-APP^695WT cells is > 100 µM. Also, the IC50 with Aβ1–42 peptide secretion stood at 6.1 ± 0.3 µM; in the series with Aβ1–40 peptide secretion it was 4.2 ± 0.1 µM.
